The record followed here is patent US20230295096A1, “PYRAZOLE CARBOXAMIDE COMPOUNDS FOR TREATMENT OF HBV” (ASSEMBLY BIOSCIENCES, INC., priority 2020, published 2023).

Bounds are passed on as bounds.

For this experiment, the system named is HBV. Description: Viral load production from HepAD38 cells, qPCR of the HBV core sequence in supernatant. It is filed as cell-based. The following applies: Hepatitis B virus, HePAD38, 120 h, HepAD38 cells, 5 days, HBV DNA in supernatant by qPCR; Table 1 ranges; read-out: Activity (viral load lowering EC50). The method in brief:
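EC50 and CC50 come from four-parameter logistic fits of supernatant HBV core DNA (TaqMan qPCR, DNA standards, compared with DMSO wells) and of CellTiter-Glo luminescence.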
As for `Cn1nc(C2CC3CC(CNC(=O)CCCN4CCOCC4)CC3C2)c(C(=O)Nc2ccc(F)c(Cl)c2)c1N` (stereo not shown) [Example 72, 5-Amino-N-(3-chloro-4-fluorophenyl)-1-methyl-3-(5-((4-morpholinobutanamido)methyl)octahydropentalen-2-yl)-1H-pyrazole-4-carboxamide], the EC50 was below 0.01 µM. In the case of `CC1CCC(C(=O)NCC2CC3CC(c4nn(C)c(N)c4C(=O)Nc4ccc(F)c(Cl)c4)CC3C2)CC1` (stereo not shown) [Example 51, 5-Amino-N-(3-chloro-4-fluorophenyl)-1-methyl-3-(5-((4-methylcyclohexane-1-carboxamido)methyl)octahydropentalen-2-yl)-1H-pyrazole-4-carboxamide], the half-maximal effective concentration (EC50) lay within 0.01 to 0.05 µM. Next, `CC(C)S(=O)(=O)NCC1CC2CC(c3nn(C)c(N)c3C(=O)Nc3ccc(F)c(Cl)c3)CC2C1` (stereo not shown) [Example 90, 5-Amino-N-(3-chloro-4-fluorophenyl)-1-methyl-3-(5-(((1-methylethyl)sulfonamido)methyl)octahydropentalen-2-yl)-1H-pyrazole-4-carboxamide]: below 0.01 µM. On to `Cc1nc(C2(O)CC3CC(c4nn(C)c(N)c4C(=O)Nc4ccc(F)c(Cl)c4)CC3C2)no1` (stereo not shown) [Example 177], for which the EC50 was below 0.01 µM.

On to `Cn1nc(C2CC3CC(O)(c4nccs4)CC3C2)c(C(=O)Nc2ccc(F)c(Cl)c2)c1N` (stereo not shown) [Example 18, 5-Amino-N-(3-chloro-4-fluorophenyl)-3-(5-hydroxy-5-(thiazol-2-yl)octahydropentalen-2-yl)-1-methyl-1H-pyrazole-4-carboxamide], for which the EC50 is below 0.01 µM. With `C=CCC1(O)CC2CC(c3nn(C)c(N)c3C(=O)Nc3ccc(F)c(Cl)c3)CC2C1` (stereo not shown) [Example 2, 3-(5-Allyl-5-hydroxyoctahydropentalen-2-yl)-5-amino-N-(3-chloro-4-fluorophenyl)-1-methyl-1H-pyrazole-4-carboxamide], the 50% effective concentration (EC50) is below 0.01 µM. Then `Cn1nc(C2CC3CC(O)(c4c[nH]nc4C(F)(F)F)CC3C2)c(C(=O)Nc2ccc(F)c(C#N)c2)c1N` (stereo not shown) [Example 222], with below 0.01 µM; and `Cn1nc(C2CC3CC(O)(c4ccc(F)cn4)CC3C2)c(C(=O)Nc2ccc(F)c(Cl)c2)c1N` (stereo not shown) [Example 168], with below 0.01 µM. Consider `Cn1nc(C2CC3CC(CNC(=O)CC(F)(F)F)CC3C2)c(C(=O)Nc2ccc(F)c(Cl)c2)c1N` (stereo not shown) [Example 55, 5-Amino-N-(3-chloro-4-fluorophenyl)-1-methyl-3-(5-((3,3,3-trifluoropropanamido)methyl)octahydropentalen-2-yl)-1H-pyrazole-4-carboxamide], for which the EC50 was below 0.01 µM.

With `Cn1nc(C2CC3CC(CNC(=O)C4CCN(C(=O)OC(C)(C)C)CC4)CC3C2)c(C(=O)Nc2ccc(F)c(Cl)c2)c1N` (stereo not shown) [Example 62, tert-Butyl 4-(((5-(5-amino-4-((3-chloro-4-fluorophenyl)carbamoyl)-1-methyl-1H-pyrazol-3-yl)octahydropentalen-2-yl)methyl)carbamoyl)piperidine-1-carboxylate], the EC50 was below 0.01 µM. Next, `Cn1nc(C2CC3CC(O)(c4c(Cl)cnn4C)CC3C2)c(C(=O)Nc2ccc(F)c(Cl)c2)c1N` (stereo not shown) [Example 208]: below 0.01 µM; `Cn1nc(C2CC3CC(O)(c4ncco4)CC3C2)c(C(=O)Nc2ccc(F)c(Cl)c2)c1N` (stereo not shown) [Example 21, 5-Amino-N-(3-chloro-4-fluorophenyl)-3-(5-hydroxy-5-(oxazol-2-yl)octahydropentalen-2-yl)-1-methyl-1H-pyrazole-4-carboxamide]: below 0.01 µM; `CSc1nccc(C2(O)CC3CC(c4nn(C)c(N)c4C(=O)Nc4ccc(F)c(Cl)c4)CC3C2)n1` (stereo not shown) [Example 192]: 0.01 to 0.05 µM. Then `CC(NC(=O)N1CC2CC(c3nn(C)c(N)c3C(=O)Nc3ccc(F)c(Cl)c3)CC2C1)C(F)(F)F` (single isomer, unassigned) [Example 128, 5-(5-Amino-4-((3-chloro-4-fluorophenyl)carbamoyl)-1-methyl-1H-pyrazol-3-yl)-N-(1,1,1-trifluoropropan-2-yl)hexahydrocyclopenta[c]pyrrole-2(1H)-carboxamide], with 0.05 to 0.5 µM. Consider `COCCOCCOCCOCCOCCOCCOCCOC(=O)OCn1cc(C2(O)CC3CC(c4nn(C)c(N)c4C(=O)Nc4ccc(F)c(Cl)c4)CC3C2)c(C(F)(F)F)n1` (stereo not shown) [Example 229], for which the concentration for a half-maximal effect (EC50) was below 0.01 µM. Regarding `Cc1ccc(S(=O)(=O)C(F)(F)C2(O)CC3CC(c4nn(C)c(N)c4C(=O)Nc4ccc(F)c(Cl)c4)CC3C2)cc1` (stereo not shown) [Example 35, 5-Amino-N-(3-chloro-4-fluorophenyl)-3-(5-(difluoro(tosyl)methyl)-5-hydroxyoctahydropentalen-2-yl)-1-methyl-1H-pyrazole-4-carboxamide], the EC50 lay within 0.01 to 0.05 µM. Then `Cn1nc(C2CC3CC(CNS(=O)(=O)C4(C)CC4)CC3C2)c(C(=O)Nc2ccc(F)c(Cl)c2)c1N` (stereo not drawn) [Example 95, 5-Amino-N-(3-chloro-4-fluorophenyl)-1-methyl-3-(5-(((1-methylcyclopropane)-l-sulfonamido)methyl)octahydropentalen-2-yl)-1H-pyrazole-4-carboxamide], with below 0.01 µM. Next, `Cn1nc(C2CC3CC(CNS(=O)(=O)C4CCC4)CC3C2)c(C(=O)Nc2ccc(F)c(Cl)c2)c1N` (stereo not shown) [Example 91, 5-Amino-N-(3-chloro-4-fluorophenyl)-3-(5-(cyclobutanesulfonamidomethyl)octahydropentalen-2-yl)-1-methyl-1H-pyrazole-4-carboxamide]: 0.01 to 0.05 µM; `Cn1nc(C2CC3CC(O)(c4ccncc4F)CC3C2)c(C(=O)Nc2ccc(F)c(Cl)c2)c1N` (stereo not shown) [Example 169]: below 0.01 µM; `Cn1nc(C2CC3CC(CNC(=O)CCCCCNC(=O)OC(C)(C)C)CC3C2)c(C(=O)Nc2ccc(F)c(Cl)c2)c1N` (stereo not shown) [Example 73, tert-Butyl (6-(((5-(5-amino-4-((3-chloro-4-fluorophenyl)carbamoyl)-1-methyl-1H-pyrazol-3-yl)octahydropentalen-2-yl)methyl)amino)-6-oxohexyl)carbamate]: 0.01 to 0.05 µM. As to `Cn1nc(C2CC3CC(O)(c4c(Br)nnn4C)CC3C2)c(C(=O)Nc2ccc(F)c(Cl)c2)c1N` (stereo not shown) [Example 24, 5-Amino-3-(5-(4-bromo-1-methyl-1H-1,2,3-triazol-5-yl)-5-hydroxyoctahydropentalen-2-yl)-N-(3-chloro-4-fluorophenyl)-1-methyl-1H-pyrazole-4-carboxamide], the EC50 was below 0.01 µM. Then `Cn1nc(C2CC3C=C(c4cc(N)nn4C4CC4)CC3C2)c(C(=O)Nc2ccc(F)c(Cl)c2)c1N` (stereo not shown) [Example 216], with 0.01 to 0.05 µM.
